Data reported in patent publication US20250009743A1, “METHODS OF TREATING CANCERS USING STING AGONISTS” (Dana-Farber Cancer Institute, Inc., priority 2021, published 2025).

Legend:
BP tumors = assay: Flow cytometry of intratumoral immune cells of BP tumors; format: in vivo, mouse
Protocol: To obtain single-cell suspensions, tumors were excised, minced and dissociated in collagenase/hyaluronidase buffer [DMEM with 5% FBS, 10 mM HEPES (Gibco), 100 μg/mL penicillin-streptomycin, 20 μg/mL DNase I (StemCell) and 1× collagenase/hyaluronidase (StemCell)] for 45 min at 37° C. with agitation, followed by treatment with ammonium-chloride-potassium (ACK) buffer (Lonza) for red blood cell (RBC) lysis, and strained through a 70 μm strainer to remove undigested tumor tissues. Spleens and tumor-draining lymph nodes (TDLNs) were mechanically dissociated by passing the tissues through a 70 μm strainer using the plunger of a 5 ml syringe, and RBCs were lysed as described above.
For flow cytometry analyses of tumor and TDLN samples, single-cell suspensions were obtained as described above (Tissue Digestion). Cells were stained in cold FACS buffer (PBS containing 0.2% BSA and 5 mM EDTA) with LIVE/DEAD Fixable Aqua Dead Cell Stain (Thermo Fisher) for 30 min on ice, followed by blocking with anti-CD16/32 (BioLegend) for 20 min on ice. Cells were then incubated in FACS buffer for 30 min on ice with antibodies specific to CD45 (clone 30-F11, BioLegend), TCR β chain (clone H57-597, BioLegend), CD38 (clone 145-2C11, BioLegend), CD4 (clone RM4-5, BioLegend), CD8a (clone 53-6.7, BioLegend), PD-1 (clone 29F.1A12, BioLegend), CD44 (clone IM7, BioLegend), CD62L (clone MEL-14, BioLegend), IFN-γ (clone XMG1.2, BioLegend), TNF-α (clone MP6-XT22, BioLegend), Granzyme B (clone NGZB, eBioscience), CD11c (clone N418, BioLegend), I-A/I-E (clone M5/114.15.2, BioLegend), CD80 (clone 16-10A1, BioLegend), CD86 (clone GL-1, BioLegend), CD103 (clone 2E7, BioLegend), CD11b (M1/70, BioLegend), F4/80 (clone BM8, BioLegend), phospho-TBK1 (Ser172) (clone D52C2, Cell Signaling Tech.) or phospho-IRF-3 (Ser396) (clone D601M, Cell Signaling Tech.). For intracellular staining, Foxp3/Transcription Factor Staining Buffer Set (eBioscience, #00-5523-00) was used for fixation and permeabilization. For cytokine analysis, cells were stimulated with Leukocyte Activation Cocktail with protein transport inhibitor Brefeldin A (BD Biosciences, #550583) at 37° C. for 4 hours prior to the staining. Analysis of ϵ-HA2X (Ser139) was performed according to manufacturer's instructions. Briefly, ice-cold 70% ethanol (Decon) was added dropwise to the cell pellet while vortexing. Cells were then incubated at −20° C. for 1 hour and washed three times with cold staining buffer. For the staining, 5 μL p-HA2X antibody (clone 2F3, BioLegend) was added to approximately 1×10^6 cells in 100 μL staining buffer and incubated at 4° C. for 30 min. For Annexin V and 7-AAD staining, cells were detached with accutase (Sigma, #A6964). […] All data were analyzed using FlowJo software.

PBM-R tumors = assay: PBM-R (PARPi-resistant) ovarian tumor burden in syngeneic FVB/NJ mice; format: in vivo, mouse; conditions: for PBM-R tumor growth inhibition: 14 days, olaparib 50 mg/kg i.p. daily, MSA-2 25 mg/kg i.p. three times a week, FIG. 23A
Protocol: The PBM and PBM-R tumor cells were transplanted orthotopically into syngeneic FVB/NJ mice to generated tumors for drug evaluation. Tumor-bearing mice were equivalently divided into control and treatment groups according to the luminescent intensity as previously described (Ding et al., 2018; Cell Rep 25, 2972-2980.e2975). Olaparib (AZD2281) was administered daily by i.p. injection at dose of 50 mg/kg body weight. Anti-PD-1 antibody (clone, 332.8H3) was diluted in PBS (250 μg/100 μl/mouse) and injected by i.p. every 3 days. MSA-2 was prepared by diluting 50 mg/ml stock in DMSO with PBS (pH 8.0) and administered every other day (three times a week, two weeks on followed by one week off) by i.p. injection at dose of 25 mg/kg body weight. The endpoints were determined by tumor burden and ascites.

[1] = tested on: BMDMs generated from FVB/NJ mice; assay: Polarization of mouse BMDMs cultured in PBM / PBM-R conditioned medium; format: cell-based
Protocol: For ex vivo culture of mouse macrophages, bone marrow cells were isolated from FVB/NJ mice and cultured in DMEM containing 10% FBS, 55 μM 2-Mercaptoethanol and 20 ng/ml M-CSF. BMDMs (bone marrow derived macrophages) were harvested on day 7 and further cultured in 2.0 ml control medium (90% DMEM, 10% FBS, 55 μM 2-Mercaptoethanol and 5 ng/ml M-CSF) described above or the medium containing 50% tumor cell conditioned medium for 72 hrs before analysis. For the tumor cell conditioned medium, about 3×10^5 tumor cells were cultured in 6-well plate for 24 hrs and then treated with DMSO or olaparib. After 24 hrs incubation with DMSO or olaparib, the tumor cells were washed twice with PBS and cultured in DMEM containing 10% FBS for 48 hrs. The tumor cell conditioned medium was collected by centrifugation at 1,500 g for 5 min at 4° C. to remove all the debris and cells. For the cytokine blocking experiment, monoclonal antibodies that specific to each cytokine were added to the tumor cell conditioned medium before it was applied to culture macrophages.

SMILES	production of anti-tumor cytokines (IFNg, Granzyme B, TNFa) in CD8+ and CD4+ T cells (BP tumors; after 21 days of treatments, DMXAA intratumoral, FIG. 9B-9C)	PBM-R tumor growth inhibition (PBM-R tumors)	PBM-R tumor weight (PBM-R tumors; MSA-2 25 mg/kg i.p. three times per week with olaparib 50 mg/kg + anti-PD-1, two weeks, FIG. 14D)	M1/M2 ratio ([1]; BMDMs in 50% PBM-R-CM, ADU-S100 10 μM or MSA-2 5 ug/ml, two days, FIG. 21B)	population of tumor-associated macrophages (TAMs) (BP tumors; 21 days of treatment)	CD8+ T cells and effector CD8+ T cells in tumors (BP tumors; after seven days of treatment)	proportion of PD-1+CD8+ T cells (BP tumors; after seven days of treatment)	response of PBM-R-shStat3 tumors in vivo (PBM-R tumors; PBM-R cells with STAT3 knockdown, FIG. 19I)	PBM-R tumor response in vivo (PBM-R tumors; orthotopically re-transplanted to syngeneic host mice, FIG. 15E)	M2-like TAM polarization of BMDMs by CM from olaparib-treated PBM cells (PBM-OLA-CM) ([1]; FIG. 19E)
Cc1ccc2c(=O)c3cccc(CC(=O)O)c3oc2c1C [DMXAA, 5,6-dimethyl-xanthenone-4-acetic acid]	strongly up-regulated	–	–	–	–	–	–	–	–	–
COc1cc2cc(C(=O)CCC(=O)O)sc2cc1OC [MSA-2]	–	little or no effect	sensitizes PARPi-resistant tumors to olaparib in vivo	significantly increased	–	–	–	–	–	–
O=C(c1cc(Cc2n[nH]c(=O)c3ccccc23)ccc1F)N1CCN(C(=O)C2CC2)CC1 [olaparib]	–	little or no effect	–	–	not significantly affected	not significantly changed	increased	became sensitive	indeed resistance to PARPi in vivo	stronger effect on M2-like TAM polarization of BMDMs than PBM-CM
